# Measurements reported in patent US20060127980A1, “Human excitatory amino acid transporter-2 gene promoter and uses thereof” (priority 2003, published 2006).
# Starred links: 1 amine or outer side, 2 acyl side, 3 side chain; linkers in the order of their positions; H or OH if unused. Positions of bridges follow the written chain, without caps; N, C: chain ends. Non-standard residues stand in square brackets, D forms with d. Residues, ends and D or L forms follow the SMILES beside them. Chains are numbered I, II in the order given. Actinocin(9to1) = Cc1c2oc3c(C)ccc(C(=O)[*:1])c3nc-2c(C(=O)[*:2])c(N)c1=O; NMeV = CN[C@H](C(=O)O)C(C)C; Sar = CNCC(=O)O
# What was measured:
# [1] = tested on: rat astrocytes; details: Zelenaia et al., 2000; cited from earlier work
# [2] = tested on: hEAAT2 promoter; assay: hEAAT2 promoter luciferase assay of agents in PHFA-Im (FIG. 11); type: cell-based, human; details: 10 μM
# Experimental: (§1) FIG. 11. Effect of various agents on hEAAT2 promoter activity in immortalized primary human fetal astrocytes (PHFA-Im). A: ceftriaxone; B: amoxicillin; C: chloramphenicol; D: thiamphenicol; E: vancomycin; F: glycine; G: glutamate; H: DMSO; I: dibutyryl cAMP. PHFA-Im is a human telomerase-immortalized clone of primary human fetal astrocytes. PHFA-Im cells were seeded at 5×10^4 cells/35-mm plate. Twenty-four h later cells were untreated (CON) or received the indicated compound at a final concentration of 10 μM. Forty-eight h later the cells were transfected with a FL pGL3/EAAT2 luciferase reporter construct (5 μg) plus a pSVβGalactosidase construct (1 μg) using the calcium phosphate precipitation method (Su et al. 2003, Proc. Natl. Acad. Sci. USA 100:1955-1960). After an additional 48 h, cell lysates were prepared and luciferase activity was determined using the Luciferase Assay System Kit (Promega, E1501) and luminescence determined using a luminometer (Turner Designs, TD20/20) (Su et al. 2003, Proc. Natl. Acad. Sci. USA 100:1955-1960). Data presented are the average of 3 independent plates±S.D. Qualitatively similar results were obtained in 2 additional experiments.
# as §1, with “The effects” for “FIG. 11. Effect”, “these same” for “various”, “also were examined” for “on hEAAT2 promoter activity”, “two other cell lines to confirm the generality of the findings. […] PHFA-Im is a cell line developed from a clonal isolate of a” for “immortalized”, “astrocyte immortalized by transformation with the reverse transcriptase subunit of” for “astrocytes (PHFA-Im). A: ceftriaxone; B: amoxicillin; C: chloramphenicol; D: thiamphenicol; E: vancomycin; F: glycine; G: glutamate; H: DMSO; I: dibutyryl cAMP. PHFA-Im is a”, “telomerase.” for “telomerase-immortalized clone of primary human fetal astrocytes.”
# [3] = tested on: hEAAT2 promoter; assay: hEAAT2 promoter luciferase assay of agents in H4 glioma cells (FIG. 12); type: cell-based, human; details: H4 malignant glioma cells; 10 μM
# Experimental: as §1, with “12.” for “11.”, “H4” for “immortalized primary”, “malignant glioma cells.” for “fetal astrocytes (PHFA-Im).”, “H4” for “PHFA-Im”, “rare” for “human telomerase-immortalized”, “malignant glioma cells that support hEAAT2 promoter activity. H4” for “primary human fetal astrocytes. PHFA-Im”
# (§2) H4, the third cell line examined, is a rare clone of malignant glioma cells that support hEAAT2 promoter activity. In the studies shown in FIG. 12, H4 cells were seeded at 5×10^4 cells/35-mm plate. Twenty-four h later cells were untreated (CON) or received the indicated compound at a final concentration of 10 μM. Forty-eight h later the cells were transfected with a FL pGL3/EAAT2 luciferase reporter construct (5 μg) plus a pSVβGalactosidase construct (1 μg) using the calcium phosphate precipitation method (Su et al. 2003, Proc. Natl. Acad. Sci. USA 100:1955-1960). After an additional 48 h, cell lysates were prepared and luciferase activity was determined using the Luciferase Assay System Kit (Promega, E1501) and luminescence determined using a luminometer (Turner Designs, TD20/20) (Su et al. 2003, Proc. Natl. Acad. Sci. USA 100:1955-1960). Data presented are the average of 3 independent plates±S.D. Qualitatively similar results were obtained in 2 additional experiments.
# [4] = tested on: hEAAT2 promoter; assay: hEAAT2 promoter luciferase assay of agents in PHFA (FIG. 10); type: cell-based, human; details: PHFA passage #3; 10 μM
# Experimental: as §1, with “10.” for “11.”, “on” for “in immortalized”, “(PHFA).” for “(PHFA-Im).”, “PHFA (passage #3)” for “PHFA-Im is a human telomerase-immortalized clone of primary human fetal astrocytes. PHFA-Im cells”, “1×10^5” for “5×10^4”
# as §2, with “Identification of Agents that Modulate hEAAT2 Promoter Activity. FIGS. 10-12 show” for “H4,”, “effects” for “third cell line examined, is a rare clone”, “various agents on” for “malignant glioma cells that support”, “activity in PHFA (FIG. 10), PHFA-Im (FIG. 11) and H4 glioma (FIG. 12) cells.” for “activity.”, “10, PHFA (passage #3)” for “12, H4 cells”, “1×10^5” for “5×10^4”
hEAAT2 promoter activity [2],hEAAT2 promoter activity [4],SMILES,toxicity [1],hEAAT2 promoter activity [3]
,,"Cc1c2oc3c(C)ccc(C(=O)N[C@@H]4C(=O)N[C@H](C(C)C)C(=O)N5CCC[C@H]5C(=O)N(C)CC(=O)N(C)[C@@H](C(C)C)C(=O)O[C@@H]4C)c3nc-2c(C(=O)N[C@@H]2C(=O)N[C@H](C(C)C)C(=O)N3CCC[C@H]3C(=O)N(C)CC(=O)N(C)[C@@H](C(C)C)C(=O)O[C@@H]2C)c(N)c1=O [actinomycin D] (I: T[dV]P[Sar][NMeV] / II: T[dV]P[Sar][NMeV]; ester I:1-I:C, II:1-II:C; linker I:N-II:N via Actinocin(9to1))",toxic,
potent stimulators,potent stimulators,CO/N=C(\C(=O)N[C@@H]1C(=O)N2C(C(=O)O)=C(CSc3nc(=O)c(=O)[nH]n3C)CS[C@H]12)c1csc(N)n1 [ceftriaxone],,potent stimulators
potent stimulators,potent stimulators,O=C(N[C@H](CO)[C@H](O)c1ccc([N+](=O)[O-])cc1)C(Cl)Cl [chloramphenicol],,potent stimulators
potent stimulators,potent stimulators,CS(=O)(=O)c1ccc([C@@H](O)[C@@H](CO)NC(=O)C(Cl)Cl)cc1 [thiamphenicol],,potent stimulators
